# Data taken from US20230096766A1, “AMINO ACID HAVING FUNCTIONAL GROUP CAPABLE OF INTERMOLECULAR HYDROGEN BONDING, PEPTIDE COMPOUND CONTAINING SAME AND METHOD FOR PRODUCTION THEREOF” (Chugai Seiyaku Kabushiki Kaisha, priority 2018, published 2023).
# *1 amine or outer side, *2 acyl side, *3 side chain or, on linkers, in order; H or OH if unused. Where a SMILES comes first, the peptide text is derived from it. Bridges are numbered along the chain shown (N, C = ends). [ ]: non-standard residue; d: D form. The star is where a group is joined. Tyr(3-F) = N[C@@H](Cc1ccc(O)c(F)c1)C(=O)O; NMeF = CN[C@@H](Cc1ccccc1)C(=O)O; NMeGABA = CN(CCCC(=O)[*:2])[*:1]; NMeI = CC[C@H](C)[C@H](NC)C(=O)O; NMeD = CN[C@@H](CC(=O)O)C(=O)O; NMeL = CN[C@@H](CC(C)C)C(=O)O; NMeV = CN[C@H](C(=O)O)C(C)C; NMeA = CN[C@@H](C)C(=O)O; Piperidide = C1CCN(*)CC1; Sar = CNCC(=O)O; tBu = CC(C)(C)*
# Assay: in vitro
# Conditions: human, Caco-2, Caco-2 (cm/sec)
row,Compound,Papp [×10⁻⁶ cm/s]
1,CC(C)C[C@H]1C(=O)N[C@@H](COC(C)(C)C)C(=O)N(C)[C@@H](Cc2ccccc2)C(=O)N(C)[C@@H](C(C)C)C(=O)N[C@H](C(=O)N2CCCCC2)CC(=O)N[C@H](C(C)C)C(=O)N(C)[C@@H](C)C(=O)N[C@@H](C(C)C)C(=O)N(C)[C@@H](CC(C)C)C(=O)N[C@@H](Cc2ccc(O)cc2)C(=O)N(C)CC(=O)N1C [pd121] ([dV][NMeA]V[NMeL]Y[Sar][NMeL]S(tBu)[NMeF][NMeV]D-Piperidide; lactam N-11),1
2,CC(C)C[C@H]1C(=O)N[C@H](C(=O)N2CCCCC2)CC(=O)N(C)[C@@H](C)C(=O)N[C@@H](Cc2ccc(O)c(F)c2)C(=O)N(C)[C@@H](CC(C)C)C(=O)N(C)[C@@H](CC(C)C)C(=O)N[C@@H](C(C)C)C(=O)N(C)[C@@H](Cc2ccccc2)C(=O)N(C)[C@@H](CC(C)C)C(=O)N[C@@H]([C@@H](C)O)C(=O)N(C)CC(=O)N1C [pd122] ([NMeA][Tyr(3-F)][NMeL][NMeL]V[NMeF][NMeL]T[Sar][NMeL]D-Piperidide; lactam N-11),0.46
3,CC(C)C[C@@H]1NC(=O)[C@H](CC(C)C)N(C)C(=O)[C@H](Cc2ccccc2)N(C)C(=O)CN(C)C(=O)[C@H]([C@@H](C)O)NC(=O)[C@H](CC(C)C)N(C)C(=O)[C@H](Cc2ccc(O)c(F)c2)NC(=O)[C@H](CC(C)C)N(C)C(=O)CN(C)C(=O)C[C@@H](C(=O)N2CCCCC2)NC(=O)[C@H](CC(C)C)N(C)C1=O [pd123] ([Sar][NMeL][Tyr(3-F)][NMeL]T[Sar][NMeF][NMeL]L[NMeL]D-Piperidide; lactam N-11),0.44
4,CC[C@H](C)[C@@H]1NC(=O)[C@H](CC(C)C)N(C)C(=O)[C@@H](C)NC(=O)C[C@@H](C(=O)N2CCCCC2)NC(=O)[C@H](C)N(C)C(=O)[C@H](Cc2ccccc2)N(C)C(=O)[C@H](COC(C)(C)C)NC(=O)[C@H](CC(C)C)N(C)C(=O)CN(C)C(=O)[C@H](Cc2ccc(O)c(F)c2)NC(=O)[C@H](CC(C)C)N(C)C1=O [pd124] ([dA][NMeL]I[NMeL][Tyr(3-F)][Sar][NMeL]S(tBu)[NMeF][NMeA]D-Piperidide; lactam N-11),0.32
5,CC[C@H](C)[C@@H]1NC(=O)[C@H](C(C)C)N(C)C(=O)CCCN(C)C(=O)C[C@@H](C(=O)N2CCCCC2)NC(=O)[C@H](CC(C)C)N(C)C(=O)[C@H](C)N(C)C(=O)[C@H](Cc2ccc(O)cc2)NC(=O)[C@H](CC(C)C)N(C)C(=O)[C@H](COC(C)(C)C)NC(=O)[C@H](Cc2ccccc2)N(C)C(=O)[C@H](CC(C)C)N(C)C1=O [pd125] ([NMeGABA][NMeV]I[NMeL][NMeF]S(tBu)[NMeL]Y[NMeA][NMeL]D-Piperidide; lactam N-11),0.45
6,CC[C@H](C)[C@H]1C(=O)N[C@@H](Cc2ccc(O)cc2)C(=O)N(C)CC(=O)N(C)[C@@H](CC(C)C)C(=O)N[C@H](C(=O)N2CCCCC2)CC(=O)N(C)[C@@H](C)C(=O)N[C@@H](C(C)C)C(=O)N(C)[C@@H](CC(C)C)C(=O)N(C)[C@@H](CC(C)C)C(=O)N[C@@H](C)C(=O)N(C)[C@@H](Cc2ccccc2)C(=O)N1C [pd126] ([NMeA]V[NMeL][NMeL]A[NMeF][NMeI]Y[Sar][NMeL]D-Piperidide; lactam N-11),0.42
7,CC(C)C[C@@H]1NC(=O)[C@H](Cc2ccccc2)N(C)C(=O)[C@@H](C(C)C)NC(=O)C[C@@H](C(=O)N2CCCCC2)NC(=O)[C@H](C)N(C)C(=O)[C@H](CC(C)C)N(C)C(=O)[C@H](COC(C)(C)C)NC(=O)[C@H](CC(C)C)N(C)C(=O)CN(C)C(=O)[C@H](Cc2ccc(O)cc2)NC(=O)[C@H](CC(C)C)N(C)C1=O [pd127] ([dV][NMeF]L[NMeL]Y[Sar][NMeL]S(tBu)[NMeL][NMeA]D-Piperidide; lactam N-11),0.13
8,CC(C)C[C@@H]1NC(=O)[C@H](Cc2ccccc2)N(C)C(=O)[C@@H](C(C)C)NC(=O)C[C@@H](C(=O)N2CCCCC2)NC(=O)[C@H](CC(C)C)N(C)C(=O)[C@H](CC(C)C)N(C)C(=O)[C@H](Cc2ccc(O)c(F)c2)NC(=O)[C@H](CC(C)C)N(C)C(=O)CN(C)C(=O)[C@H]([C@@H](C)O)NC(=O)[C@H](CC(C)C)N(C)C1=O [pd128] ([dV][NMeF]L[NMeL]T[Sar][NMeL][Tyr(3-F)][NMeL][NMeL]D-Piperidide; lactam N-11),0.17
9,CC[C@H](C)[C@@H]1NC(=O)[C@H](CC(C)C)N(C)C(=O)CCCN(C)C(=O)C[C@@H](C(=O)N2CCCCC2)NC(=O)[C@H](CC(C)C)N(C)C(=O)[C@H](C)N(C)C(=O)[C@H](Cc2ccc(O)cc2)NC(=O)[C@H](CC(C)C)N(C)C(=O)[C@H](COC(C)(C)C)NC(=O)[C@H](CC(C)C)N(C)C(=O)[C@H](Cc2ccccc2)N(C)C1=O [pd129] ([NMeGABA][NMeL]I[NMeF][NMeL]S(tBu)[NMeL]Y[NMeA][NMeL]D-Piperidide; lactam N-11),0.16
10,CC[C@H](C)[C@H]1C(=O)N[C@@H]([C@@H](C)O)C(=O)N(C)CC(=O)N(C)[C@@H](C)C(=O)N[C@H](C(=O)N2CCCCC2)CC(=O)N(C)[C@@H](C)C(=O)N[C@@H](C(C)C)C(=O)N(C)[C@@H](CC(C)C)C(=O)N(C)[C@@H](Cc2ccccc2)C(=O)NC(COc2cccc(Cl)c2)C(=O)N(C)[C@@H](Cc2ccccc2)C(=O)N1C (some centres unmarked) [pd186],1.8
11,CC(C)C[C@@H]1NC(=O)[C@H](Cc2ccccc2)N(C)C(=O)[C@H](C)N(C)C(=O)C[C@@H](C(=O)N2CCCCC2)N(C)C(=O)[C@H](Cc2ccccc2)N(C)C(=O)[C@H](Cc2ccccc2)N(C)C(=O)[C@H](COC(C)(C)C)NC(=O)[C@H](C(C)C)N(C)C(=O)CN(C)C(=O)[C@H]([C@@H](C)O)NC(=O)[C@H](CC(C)C)N(C)C1=O [pd202] ([NMeA][NMeF]L[NMeL]T[Sar][NMeV]S(tBu)[NMeF][NMeF][NMeD]-Piperidide; lactam N-11),2.1
12,CC(C)C[C@@H]1NC(=O)[C@H](Cc2ccccc2)N(C)C(=O)[C@@H]2CCCN2C(=O)C[C@@H](C(=O)N2CCCCC2)NC(=O)[C@H](Cc2ccccc2)N(C)C(=O)[C@H](Cc2ccccc2)N(C)C(=O)[C@H](COC(C)(C)C)NC(=O)[C@H](CC(C)C)N(C)C(=O)CN(C)C(=O)[C@H]([C@@H](C)O)NC(=O)[C@H](CC(C)C)N(C)C1=O [pd203] (P[NMeF]L[NMeL]T[Sar][NMeL]S(tBu)[NMeF][NMeF]D-Piperidide; lactam N-11),2.1
13,CC(C)C[C@@H]1NC(=O)[C@H](C)N(C)C(=O)C[C@@H](C(=O)N2CCCCC2)NC(=O)[C@H](CC(C)C)N(C)C(=O)CN(C)C(=O)[C@H]([C@@H](C)O)NC(=O)[C@H](Cc2ccccc2)N(C)C(=O)[C@H](Cc2ccccc2)N(C)C(=O)[C@H](CC(C)C)NC(=O)[C@H](Cc2ccccc2)N(C)C(=O)[C@H](CC(C)C)N(C)C1=O [pd204] ([NMeA]L[NMeL][NMeF]L[NMeF][NMeF]T[Sar][NMeL]D-Piperidide; lactam N-11),2
14,CC(C)C[C@@H]1NC(=O)[C@H](Cc2ccccc2)N(C)C(=O)[C@H]2CCCN2C(=O)C[C@@H](C(=O)N2CCCCC2)NC(=O)[C@H](Cc2ccccc2)N(C)C(=O)[C@H](Cc2ccccc2)N(C)C(=O)[C@H](COC(C)(C)C)NC(=O)[C@H](CC(C)C)N(C)C(=O)CN(C)C(=O)[C@H]([C@@H](C)O)NC(=O)[C@H](CC(C)C)N(C)C1=O [pd206] ([dP][NMeF]L[NMeL]T[Sar][NMeL]S(tBu)[NMeF][NMeF]D-Piperidide; lactam N-11),1.8
